Measurements published in publication PMC6332320, “Factors Influencing Oral Bioavailability of Thai Mango Seed Kernel Extract and Its Key Phenolic Principles” (Molecules, 2015).

Experiments:
[1] = rat, in vivo, ip, 20 mg/kg; cited from earlier work
[2] = tested on: Caco-2 cell lysates; assay: Biological stability in Caco-2 cell lysates; type: in vitro ADME, human; settings: individual compound 100 µM, HBSS pH 6, up to 24 h
Protocol: Caco-2 cells were cultured in T75 flasks at a seeding density of 2 × 10^6 cells/flask for 12–15 days. The cell lysate was freshly prepared by washing the cells twice with ice-cold HBSS at pH 6 (12 mL). The cells were then collected by scraping and resuspending in ice-cold HBSS at pH 6 (7.5 mL/flask). The cell suspension was vortexed and sonicated in an ice water bath for 30 min to obtain the lysate, which was kept on ice until use, and its cellular protein concentration was determined using a BCA™ protein assay kit (Thermo Fisher Scientific, Rockford, IL, USA) with bovine serum albumin as a reference standard.
Many phenolic compounds were subject to sulfation and glucuronidation by Caco-2 cells at concentrations higher than 20 μM [16, 21, 43] and the metabolites of GA, MG and PGG could not be observed in Caco-2 transport experiment. Therefore, the concentration of the standard pure compounds used in this study was higher than that used in the chemical stability experiment. After preparing the cell lysate, the test compounds were prepared by dissolution in HBSS at pH 6 and then added to the lysates for a final concentration of 1.08 mg/mL protein to obtain final individual concentrations of 100 μM for GA, MG and PGG and 0.75 mg/mL for MSKE, which is equivalent to concentrations of 55.12 ± 4.57 µM GA, 7.56 ± 0.85 µM MG and 110.02 ± 17.52 µM PGG. The mixtures were then incubated in a water bath at 37 °C for 24 h, and samples (50 µL for standard compounds, and 200 µL for MSKE) were collected at 0, 4, 6 and 24 h. Each sample was then added to an ice-cold 50% methanol (150 µL for GA, MG and PGG, and 600 µL for MSKE) to stop the reaction, vortexed and centrifuged at 15,500 rpm for 15 min, and the supernatant was injected into the UPLC for analysis.
The chemical and biological stabilities of the phenolic compounds were expressed as the concentration of the analyte at different time points relative to the concentration of the same analyte at time zero multiplied by 100 (% recovery).

[3] = tested on: Caco-2 cells; settings: cited from earlier work
[4] = mouse, in vivo, po, 80 mg/kg; cited from earlier work

O=C(OC[C@H]1O[C@@H](OC(=O)c2cc(O)c(O)c(O)c2)[C@H](OC(=O)c2cc(O)c(O)c(O)c2)[C@@H](OC(=O)c2cc(O)c(O)c(O)c2)[C@@H]1OC(=O)c1cc(O)c(O)c(O)c1)c1cc(O)c(O)c(O)c1 [PGG, Pentagalloylglucopyranose]
Cmax [1]: 6 µM
stability in HBSS at pH 6 (blank control) [2]: stable in HBSS at pH 6 for 6 h and slightly degraded within 24 h
Papp AB [3]: 0.08 ± 0.03 × 10^−6 cm/s
plasma PGG levels [4]: below the limit of detection
